Patent US20230091966A1, “METHODS FOR THE TREATMENT OF CARDIOVASCULAR DISEASE WITH CYCLODEXTRINS” (Beren Therapeutics, P.B.C., priority 2020, published 2023)

How the values were obtained:
ABCA1 = settings: human subject, IV 500-1,000 mg/kg every 4 weeks; FIGS. 5A-5D
Description: (§1) A human subject was treated with 2-hydroxypropyl-beta-cyclodextrin with single-ascending doses administered intravenously every 4 weeks according to Table 1 below. In this Example, a human subject was treated with 2-hydroxypropyl-beta-cyclodextrin as in Example 2, and ABCA1 and ABCG1 mRNA levels were measured. […] ABCA1 and ABCG1 are major cellular transporters resulting in cholesterol efflux to […] or mature HDL particles. In cardiovascular disease, expression of ABC transporters correlates with plaque stability and morbidity.

ABCG1 = settings: human subject, IV 500-1,000 mg/kg every 4 weeks; FIGS. 5A-5D
Description: as §1

[1] = human subject, single-ascending IV doses 500-1,000 mg/kg every 4 weeks; plasma pre-dose vs post-dose; FIG. 3A
Description: A human subject was treated with 2-hydroxypropyl-beta-cyclodextrin with single-ascending doses administered intravenously every 4 weeks according to Table 1 below. For each dose, whole blood was collected pre-dose, post-dose (line flush), 1 hour post-dose, and 24 hours post-dose. Plasma was separated from the whole blood and subjected to a cholesterol crystal dissolution capacity (CCDC) assay using techniques similar to those described in the literature. The CCDC assay measures the ability of a sample to dissolve cholesterol crystals.

[2] = test system: 24S-hydroxycholesterol and 27-hydroxycholesterol; settings: human subject, IV 500-1,000 mg/kg every 4 weeks; FIGS. 4A-4C
Description: A human subject was treated with 2-hydroxypropyl-beta-cyclodextrin with single-ascending doses administered intravenously every 4 weeks according to Table 1 below.
In this Example, a human subject was treated with 2-hydroxypropyl-beta-cyclodextrin as in Example 2, and plasma levels of 24S-hydroxycholesterol and 27-hydroxycholesterol were measured.

[3] = pre-dose blood plasma incubated ex vivo with the substance; FIG. 3B
Description: For each dose, whole blood was collected pre-dose, post-dose (line flush), 1 hour post-dose, and 24 hours post-dose. Plasma was separated from the whole blood and subjected to a cholesterol crystal dissolution capacity (CCDC) assay using techniques similar to those described in the literature. The CCDC assay measures the ability of a sample to dissolve cholesterol crystals. Blood plasma pre-dose was also incubated ex vivo with 2-hydroxypropyl-beta-cyclodextrin and the ability of the plasma to dissolve cholesterol crystals was measured.

## 2-hydroxypropyl-beta-cyclodextrin
ABCA1
  ABCA1 mRNA levels: increased mRNA levels
ABCG1
  ABCG1 mRNA levels: increased mRNA levels
[1]
  capability of blood plasma to dissolve cholesterol crystals (CCDC): increased capability of blood plasma to dissolve cholesterol crystals
[2]
  plasma level of 24S-hydroxycholesterol: increased plasma levels
  plasma level of 27-hydroxycholesterol: increased plasma levels
  total cholesterol levels: remained stable
[3]
  capacity of plasma to dissolve cholesterol crystals (CCDC): increased capacity to dissolve cholesterol crystals
